Assay results: patent US20250380702A1, “HERBICIDAL MIXTURES COMPRISING L-GLUFOSINATE OR ITS SALT AND A SECOND HERBICIDE” (BASF SE, priority 2022, published 2025)
Several values for one entry are separate records, joined by “and”; a condition that tells them apart may be missing. Equal entries are not always repeated. Where two headings read alike, the source gives them in different places.

Assays:
Assay in all cases: Greenhouse post emergence treatment, herbicidal activity
AVEFA = type: in vivo, Avena fatua; conditions: solo application, 7 DAT
Excerpt: (§1) Synergism can be described as an interaction where the combined effect of two or more compounds is greater than the sum of the individual effects of each of the compounds. The presence of a synergistic effect in terms of percent control, between two mixing partners (X and Y) can be calculated using the Colby equation (Colby, S. R., 1967, Calculating Synergistic and Antagonistic Responses in Herbicide Combinations, Weeds, 15, 21-22):
(§2) When the observed combined control effect is greater than the expected (calculated) combined control effect (E), then the combined effect is synergistic.
(§3) The culture containers used were plastic flowerpots containing loamy sand with approximately 3.0% of humus as the substrate. The seeds of the test plants were sown separately for each species and/or resistant biotype. For the pre-emergence treatment, the active ingredients, which had been suspended or emulsified in water, were applied directly after sowing by means of finely distributing nozzles. The containers were irrigated gently to promote germination and growth and subsequently covered with transparent plastic hoods until the plants had rooted. This cover caused uniform germination of the test plants, unless this had been impaired by the active ingredients. For the post-emergence treatment, the test plants were first grown to a height of 3 to 15 cm, depending on the plant habit, and only then treated with the active ingredients which had been suspended or emulsified in water. For this purpose, the test plants were either sown directly and grown in the same containers, or they were first grown separately as seedlings and transplanted into the test containers a few days prior to treatment. Depending on the species, the plants were kept at 10-25° C. or 20-35° C., respectively. The test period extended to 20 days after treatment. During this time, the plants were tended, and their response to the individual treatments was evaluated. The evaluation was carried out by using a scale from 0 to 100. 100 means no emergence of the plants or complete destruction of at least the above-ground parts, and 0 means no damage, or normal course of growth.
(§4) As indicated in the respective examples, assessment was either after 7 days or 20 days after treatment (DAT).

Volunteer HORVS = type: in vivo, Volunteer Barley; conditions: for % activity: solo application, post emergence
Excerpt: as §1, §2, §3, §4

ABUTH = type: in vivo, Abutilon theophrasti; conditions: solo application; for inhibition at 250 g/ha: Abutilon theophrasti, 250 gai/ha
Excerpt: as §1, §2, §3, §4

POLAV = type: in vivo, Polygonum aviculare; conditions: solo application, 7 DAT
Excerpt: as §1, §2, §3, §4

CHEAL = type: in vivo, Chenopodium album; conditions: solo application, 7 DAT
Excerpt: as §1, §2, §3, §4

KCHSC = type: in vivo, Bassia scoparia; conditions: for % activity: solo application, post emergence, 7 DAT
Excerpt: as §1, §2, §3, §4

[1] = Bassia scoparia, post-emergence, 168 h, read-out: % activity

In the case of CN1C[C@H](c2cccc(C(F)(F)F)c2)[C@@H](C(=O)Nc2ccccc2F)C1=O [Tetflupyrolimet], the “% activity” value (AVEFA; 50 gai/ha) is reported as 0%, the “% activity” value (AVEFA; 100 gai/ha) is reported as 0% and the “% activity” value (Volunteer HORVS; 12.5 gai/ha, 7 DAT) is reported as 0%. For the same compound, the “% activity” value (Volunteer HORVS; 12.5 gai/ha, 20 DAT) was 5% and 0%, the “% activity” value (Volunteer HORVS; 25 gai/ha, 7 DAT) was 0% and the “% activity” value (Volunteer HORVS; 25 gai/ha, 20 DAT) was 5%. For the same compound, the “% activity” value (Volunteer HORVS; 50 gai/ha, 7 DAT) was 0%, the “% activity” value (Volunteer HORVS; 50 gai/ha, 20 DAT) was 5% and the “% activity” value (Volunteer HORVS; 100 gai/ha, 7 DAT) was 5%. For the same compound, the “% activity” value (ABUTH; 25 gai/ha, 7 DAT) was 0%, the “% activity” value (ABUTH; 25 gai/ha, 20 DAT) was 0% and the “% activity” value (ABUTH; 100 gai/ha, 7 DAT) was 0%. The “% activity” value (ABUTH; 100 gai/ha, 20 DAT) was 0%, the “% activity” value (POLAV; 50 gai/ha) was 5% and the “% activity” value (POLAV; 100 gai/ha) was 5%. For the same compound, the “% activity” value (CHEAL; 50 gai/ha) was 15%, the “% activity” value (CHEAL; 100 gai/ha) was 25% and the “% activity” value (KCHSC; 25 gai/ha) was 0%. For the same compound, the “% activity” value (KCHSC; 50 gai/ha) was 0% and the “% activity” value (KCHSC; 100 gai/ha) was 2.5%.

With CP(=O)(O)CC[C@H](N)C(=O)O.N [L-Glu, ammonium (2S)-2-amino-4-(methylphosphinato) butyric acid] the inhibition at 500 g/ha (AVEFA; Avena fatua, 168 h, 500 gai/ha) was 90%, the inhibition at 1000 g/ha (AVEFA; Avena fatua, 168 h, 1000 gai/ha) was 90% and the inhibition at 125 g/ha (Volunteer HORVS; Hordeum vulgare, post-emergence, 168 h, read-out: % activity, solo application, 125 gai/ha, post emergence, 7 DAT) was 90%. The inhibition at 250 g/ha (Volunteer HORVS; Hordeum vulgare, post-emergence, 168 h, read-out: % activity, solo application, 250 gai/ha, post emergence, 7 DAT) was 90%, the inhibition at 500 g/ha (Volunteer HORVS; Hordeum vulgare, post-emergence, 168 h, read-out: % activity, solo application, 500 gai/ha, post emergence, 7 DAT) was 95% and the inhibition at 250 g/ha (Volunteer HORVS; Hordeum vulgare, post-emergence, 480 h, read-out: % activity, solo application, 250 gai/ha, post emergence, 20 DAT) was 75%. The inhibition at 500 g/ha (Volunteer HORVS; Hordeum vulgare, post-emergence, 480 h, read-out: % activity, solo application, 500 gai/ha, post emergence, 20 DAT) was 85%, the “% activity” value (Volunteer HORVS; 125 gai/ha, 20 DAT) was 65% and 35% and the inhibition at 250 g/ha (ABUTH; 168 h, 7 DAT) was 75%. It also gave an inhibition at 250 g/ha (ABUTH; 480 h, 20 DAT) of 60%, an inhibition at 500 g/ha (POLAV; Polygonum aviculare, 168 h, 500 gai/ha) of 95% and an inhibition at 1000 g/ha (POLAV; Polygonum aviculare, 168 h, 1000 gai/ha) of 95%. The inhibition at 500 g/ha (CHEAL; Chenopodium album, 168 h, 500 gai/ha) was 95%, the inhibition at 1000 g/ha (CHEAL; Chenopodium album, 168 h, 1000 gai/ha) was 95% and the inhibition at 250 g/ha (KCHSC; [1]) was 88%. The inhibition at 500 g/ha (KCHSC; [1]) was 88% and the inhibition at 1000 g/ha (KCHSC; [1]) was 90%.
